The values below come from EP0031221B1, “Cyclic peptide nuclei” (ELI LILLY AND COMPANY, priority 1979, dated 1981).

One data set can be described thus: physchem. The note with it: 66% aqueous dimethylformamide, pH 7.32.
In the next data set the test system is Neurospora crassa 846. As to the kind of experiment: Agar-plate disc-diffusion test (zone of inhibition). Format: cell-based. The note with it: methanol suspension 1 mg/ml, 7-mm disc, 24—48 hours at 25—37°C, * = distinct zone with regrowth of organism around disc. The protocol: (§1) In Table IV activity is measured by the size (diameter in mm) of the observed zone of inhibition of the microorganism produced by the test compound. In Table V activity is measured by the minimal inhibitory concentration (MIC) of the substance (mg/disc) required to inhibit growth of the test organism. Table VI gives the results of the testing in vitro of the p-(n-octyloxy)benzoyl derivative of A-30912A nucleus against five strains of Candida albicans by the agar-dilution method. In Table VI activity is measured by the minimal inhibitory concentration (MIC) of the substance (mg/ml) required to inhibit the test organism.

Data set [1] has as its system Saccharomyces pastorianus X—52. The description is as above. Format: cell-based. Conditions: methanol suspension 1 mg/ml, 7-mm disc, incubation 24—48 hours at 25—37°C. Here is the method:
as §1

The test system of data set [2] is Trichophyton mentagrophytes A—23. The data set is described as above. It counts as cell-based. The note with it: read-out: Size of Zone of Inhibition (mm). The protocol: as §1
In a further data set the test system is Candida albicans A-26. As to the kind of experiment: Therapeutic activity against systemic C. albicans infection in mice. It counts as in vivo. Here is the method: The results of in vivo tests to evaluate the effectiveness of the derivatives against an infection caused by Candida albicans A-26 in mice are given in Table VII. In these tests activity is measured by the ED50 value (the dose in mg/kg required to cure 50% of the test animals). Where an ED50 value was not obtained, activity is indicated by the lowest dose at which a significant antifungal effect is observed. In these tests, groups of male albino mice (specific pathogen free), weighing 18 to 20 grams, are infected intravenously with Candida albicans A-26. The animals are X-irradiated 24 hours prior to infection at about 50 roentgens per minute for 8 minutes (400 total dose) to reduce immune responses to the infecting organism. At 0, 4, and 24 hours post infection each group of mice is given graded doses subcutaneously of the test compound as a suspension in 33% polyethylene glycol(PEG)-water. The day of death for each animal is recorded.

A further data set can be described thus: in vivo. The note with it: mouse, po, 416 mg/kg.
Data set [3] in a line: Blood levels after oral administration in mice (bioassay vs. Aspergillus montevidensis). Conditions: mouse, 416 mg/kg.
Procedure: (§2) At time intervals, blood samples are taken from the orbital sinus and are assayed for antibiotic activity as follows: A 7-mm disc containing 20 ml of whole blood is placed on agar seeded with Aspergillus montevidensis A35137. After 40 hours incubation at 30°C, zones of inhibition from the blood samples are compared to a standard obtained from the test compound, and the amount of compound in the blood sample is calculated.
The test system of data set [4] is Candida albicans. In words: Agar-dilution MIC against five Candida albicans strains. It counts as cell-based. Conditions: agar-dilution method. The protocol:
as §1

For data set [5], the system named is Candida albicans. The note with it: characteristics from German Offenlegungschrift 2,628,965 / U.S. Patent 4,173,629; cited from earlier work.
[6] abbreviates: Neurospora crassa 846, read-out: Size of Zone of Inhibition (mm).
The mark [7] stands for this setting: Saccharomyces pastorianus X—52, read-out: Size of Zone of Inhibition (mm).
The mark [8] stands for this setting: Candida albicans, A26, light or radiation study, sc, X-irradiated mice infected i.v. with C. albicans A-26, subcutaneous doses at 0, 4 and 24 hours, lowest dose with significant antifungal effect (survival time), read-out: Lowest Active Dose.
The mark [9] stands for this setting: Candida albicans, A26, light or radiation study, sc, X-irradiated mice infected i.v. with C. albicans A-26, subcutaneous doses at 0, 4 and 24 hours post infection, suspension in PEG-water, dose curing 50% of animals, read-out: ED50.

Each structure is given as a SMILES string. Converted amounts (≈) assume the structure as drawn. Where two headings read alike, the source gives them in different places. Starred links: 1 amine or outer side, 2 acyl side, 3 side chain; linkers in the order of their positions; H or OH if unused. Positions of bridges follow the written chain, without caps; N, C: chain ends. Non-standard residues stand in square brackets, D forms with d. Residues, ends and D or L forms follow the SMILES beside them. *: point of attachment. Orn(4R-OH,5R-OH) = O=C([C@H](C[C@@H](O)[C@@H](O)N[*:3])N[*:1])[*:2]; hTyr(3S-OH,4S-OH) = N[C@H](C(=O)O)[C@H](O)[C@@H](O)c1ccc(O)cc1; Pro(3S-OH,4S-Me) = C[C@H]1CN[C@H](C(=O)O)[C@H]1O; Benzoyl(4-octyloxy) = CCCCCCCCOc1ccc(C(=O)*)cc1; Gln(3R-OH) = NC(=O)C[C@@H](O)[C@H](N)C(=O)O; Hyp = O=C(O)[C@@H]1C[C@@H](O)CN1; Tridecanoyl = CCCCCCCCCCCCC(=O)*; Myristoyl = CCCCCCCCCCCCCC(=O)*; Lauroyl = CCCCCCCCCCCC(=O)*; 4Abz = Nc1ccc(C(=O)O)cc1

Procedure for in vivo: as §2

Consider `C[C@@H](O)[C@@H]1NC(=O)[C@H]([C@H](O)[C@@H](O)c2ccc(O)cc2)NC(=O)[C@@H]2C[C@@H](O)CN2C(=O)[C@H]([C@@H](C)O)NC(=O)[C@@H](N)C[C@@H](O)[C@@H](O)NC(=O)[C@@H]2[C@@H](O)[C@@H](C)CN2C1=O` [A-30912A nucleus] (H-[Orn(4R-OH,5R-OH)]T[Hyp][hTyr(3S-OH,4S-OH)]T[Pro(3S-OH,4S-Me)]; lactam 1-C), for which the pKa (in general, the pH at which an ionisable group is half protonated) in “physchem” is ~7.35.

In the case of `CCCCCCCCCCCCC(=O)N[C@H]1C[C@@H](O)[C@@H](O)NC(=O)[C@@H]2[C@@H](O)[C@@H](C)CN2C(=O)[C@H]([C@@H](C)O)NC(=O)[C@H]([C@H](O)[C@@H](O)c2ccc(O)cc2)NC(=O)[C@@H]2C[C@@H](O)CN2C(=O)[C@H]([C@@H](C)O)NC1=O` [Reference Example 1] (Tridecanoyl-[Orn(4R-OH,5R-OH)]T[Hyp][hTyr(3S-OH,4S-OH)]T[Pro(3S-OH,4S-Me)]; lactam 1-C), the zone of inhibition (commonly the size of the clear area around the sample on an inoculated plate) at 1000 µg/mL was found to be 32 mm in the data set with Neurospora crassa 846 (setting [6]); 21 mm in [1] (setting [7]); 60 mm in data set [2] (Trichophyton mentagrophytes A—23, methanol suspension 1 mg/ml, 7-mm disc, 24—48 hours at 25—37°C, * = distinct zone with regrowth of organism around disc). Further, in the data set with Candida albicans A-26 (setting [8]), the minimal effective dose is 20 mg/kg. In addition, in the data set on Candida albicans A-26 (setting [9]), the 50% effective dose (ED50) (as a rule, the dose that gives a 50% effect, or the effect in half of the subjects) is 34 mg/kg. This compound showed a concentration at 4 h in the data set “in vivo” of 100 µg/mL.

Consider `CCCCCCCCCCCC(=O)Nc1ccc(C(=O)N[C@H]2C[C@@H](O)[C@@H](O)NC(=O)[C@@H]3[C@@H](O)[C@@H](C)CN3C(=O)[C@H]([C@@H](C)O)NC(=O)[C@H]([C@H](O)[C@@H](O)c3ccc(O)cc3)NC(=O)[C@@H]3C[C@@H](O)CN3C(=O)[C@H]([C@@H](C)O)NC2=O)cc1` [Reference Example 7, N-(n-dodecanoyl)-p-aminobenzoyl derivative of A-30912A nucleus] ({Lauroyl-4Abz}-[Orn(4R-OH,5R-OH)]T[Hyp][hTyr(3S-OH,4S-OH)]T[Pro(3S-OH,4S-Me)]; lactam 1-C), for which the zone of inhibition at 1000 µg/mL in the data set on Neurospora crassa 846 (Neurospora crassa, 846, 48 h, read-out: Size of Zone of Inhibition (mm), Neurospora crassa 846) stood at 33 mm; in [1] (Saccharomyces pastorianus, 48 h, read-out: Size of Zone of Inhibition (mm), Saccharomyces pastorianus X—52), 21 mm; in data set [2] (Trichophyton mentagrophytes, 48 h), 55 mm. It took a dose of 15 mg/kg to reach the 50% effect level in the data set with Candida albicans A-26 (Candida albicans, A26, light or radiation study, sc) (ED50). Besides, in the data set with Candida albicans A-26 (Candida albicans, A26, light or radiation study, sc, read-out: Lowest Active Dose (mg/kg), X-irradiated mice infected i.v. with C. albicans A-26, subcutaneous doses at 0, 4 and 24 hours, lowest dose with significant antifungal effect (survival time)), the minimal effective dose is 10 mg/kg. For the same compound, the concentration at 4 h in [3] amounted to 830 µg/mL.

As for `CCCCCCCCOc1ccc(C(=O)N[C@H]2C[C@@H](O)[C@@H](O)NC(=O)[C@@H]3[C@@H](O)[C@@H](C)CN3C(=O)[C@H]([C@@H](C)O)NC(=O)[C@H]([C@H](O)[C@@H](O)c3ccc(O)cc3)NC(=O)[C@@H]3C[C@@H](O)CN3C(=O)[C@H]([C@@H](C)O)NC2=O)cc1` [Reference Example 13, p-(n-octyloxy)benzoyl derivative of A-30912A nucleus] ({Benzoyl(4-octyloxy)}-[Orn(4R-OH,5R-OH)]T[Hyp][hTyr(3S-OH,4S-OH)]T[Pro(3S-OH,4S-Me)]; lactam 1-C), the zone of inhibition at 1000 µg/mL in the data set on Neurospora crassa 846 (setting [6]) is 23 mm; in [1] (setting [7]) it was 18 mm. For the same compound, the MIC – broadly, the lowest concentration that inhibits growth of the organism – in the data set on Candida albicans [4] (Candida albicans strain A26, read-out: MIC) is 0.312 µg/mL (≈ 0.303 µM); against Candida albicans [4] (Candida albicans strain SBH 16) it was 0.312 µg/mL (≈ 0.303 µM); in the data set on Candida albicans [4] (Candida albicans strain SBH 28) it was 0.312 µg/mL (≈ 0.303 µM); with Candida albicans [4] (Candida albicans strain SBH 29) it was 0.312 µg/mL (≈ 0.303 µM); against Candida albicans [4] (Candida albicans strain SBH 31), 0.312 µg/mL (≈ 0.303 µM). Further, the minimal effective dose in the data set with Candida albicans A-26 (setting [8]) was 10 mg/kg. For the same compound, the ED50 in the data set with Candida albicans A-26 (setting [9]) was 13 mg/kg; in the data set with Candida albicans A-26 (X-irradiated mice infected i.v. with C. albicans A-26, subcutaneous doses at 0, 4 and 24 hours post infection, suspension in PEG-water, dose curing 50% of animals), 22.2 mg/kg. Further, in the data set on Candida albicans A-26 (X-irradiated mice infected i.v. with C. albicans A-26, subcutaneous doses at 0, 4 and 24 hours, lowest dose with significant antifungal effect (survival time)), the “Lowest Active Dose” value was >12.5 mg/kg. In addition, the concentration at 4 h in [3] turned out to be 23000 µg/mL.

Regarding `CCCCCCCCCCCCCC(=O)N[C@H]1C[C@@H](O)[C@@H](O)NC(=O)[C@@H]2[C@@H](O)[C@@H](C)CN2C(=O)[C@H]([C@H](O)CC(N)=O)NC(=O)[C@H]([C@H](O)[C@@H](O)c2ccc(O)cc2)NC(=O)[C@@H]2C[C@@H](O)CN2C(=O)[C@H]([C@@H](C)O)NC1=O` [S 31794/F-1] (Myristoyl-[Orn(4R-OH,5R-OH)]T[Hyp][hTyr(3S-OH,4S-OH)][Gln(3R-OH)][Pro(3S-OH,4S-Me)]; lactam 1-C), in the data set on Candida albicans [5], the antifungal activity entry is given as “has antifungal activity, especially against Candida albicans”.
